Patent US9199984B2, “Inhibition of enzymes” (CHIESI FARMACEUTICI S.p.A., priority 2012, dated 2015)
Structures can show the parent of a compound that is named as a salt.

Each compound was assayed against T1, human neutrophil elastase (HNE) (Homo sapiens, UniProt P08246) (assay: HNE enzyme activity assay). Settings: human leukocyte elastase, substrate MeOSuc-Ala-Ala-Pro-Val-AMC 100 μM, 25° C. for 30 minutes, fluorescence; read-out: HNE inhibition.
T1 construct: purchased Sigma E8140
T1 sequence (P08246 30-247 limits assumed): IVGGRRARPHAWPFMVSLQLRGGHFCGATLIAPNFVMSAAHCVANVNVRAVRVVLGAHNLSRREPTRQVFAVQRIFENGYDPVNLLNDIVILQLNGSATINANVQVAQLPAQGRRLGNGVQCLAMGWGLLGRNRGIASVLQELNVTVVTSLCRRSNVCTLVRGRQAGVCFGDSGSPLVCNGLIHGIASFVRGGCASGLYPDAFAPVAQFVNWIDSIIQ
Assay type: biochemical
Procedure: Compounds of the present invention were tested for potency in a human neutrophil elastase (HNE) enzyme activity assay.
Assays were performed in 96-well plates in a total assay volume of 100 μl. The final concentration of elastase enzyme (human leukocyte elastase, Sigma E8140) was 0.0036 units/well […]. The peptide substrate (MeOSuc-Ala-Ala-Pro-Val-AMC, Calbiochem #324740) was used at a final concentration of 100 μM. The final concentration of DMSO was 1% in the assay buffer (0.05M Tris.HCl, 0.1M NaCl, 0.1M CaCl2, 0.0005% brij-35, pH 7.5). The enzymatic reaction was started by addition of the enzyme and incubated at 25° C. for 30 minutes. After incubation, the reaction was stopped by addition of soybean trypsin inhibitor (Sigma T9003) at a final concentration of 50 μg/well. Fluorescence was measured using a Molecular Devices fluorescence plate reader using 380 nm excitation and 460 nm emission wavelengths.
A dose response to each compound was performed and the effect of compound in each experiment was expressed as a percentage inhibition of the control enzyme fluorescence. Dose response curves were plotted and compound potency (IC50) was determined. Compounds were tested in at least two separate experiments.

Row | SMILES | IC50
1 | Cc1c(-c2ccnn2-c2ccc(C#N)cc2)cn2nc(NC(=O)C[N+]3(C)CCN(C)CC3)nc2c1-c1cccc(C(F)(F)F)c1 [Example 25, 1-{[6-[2-(4-Cyano-phenyl)-2H-pyrazol-3-yl]-7-methyl-8-(3-trifluoromethyl-phenyl)-[1,2,4]triazolo[1,5-a]pyridin-2-ylcarbamoyl]-methyl}-1,4-dimethyl-piperazin-1-ium chloride] | 20 to 100 nM
2 | Cc1c(-c2ccnn2-c2ccc(C#N)cc2)cn2nc(NC(=O)CC[S+](C)[O-])nc2c1-c1cccc(C(F)(F)F)c1 (stereo not drawn) [Example 45, N-[6-[2-(4-Cyano-phenyl)-2H-pyrazol-3-yl]-7-methyl-8-(3-trifluoromethyl-phenyl)[1,2,4]triazolo[1,5-a]pyridin-2-yl]-3-methanesulfinyl-propionamide] | < 20 nM
3 | Cc1c(-c2ccnn2-c2ccc(C#N)cc2)cn2nc(NC(=O)c3ccc(S(C)(=O)=O)cc3)nc2c1-c1cccc(C(F)(F)F)c1 [Example 22, N-[6-[2-(4-Cyano-phenyl)-2H-pyrazol-3-yl]-7-methyl-8-(3-trifluoromethyl-phenyl)-[1,2,4]triazolo[1,5-a]pyridin-2-yl]-4-methanesulfonyl-benzamide] | < 20 nM
4 | Cc1cn2cc(-c3ccnn3-c3ccc(C#N)cc3)c(C)c(-c3cccc(C(F)(F)F)c3)c2n1 [Example 5, 4-{5-[2,7-Dimethyl-8-(3-trifluoromethyl-phenyl)-imidazo[1,2-a]pyridin-6-yl]-pyrazol-1-yl}-benzonitrile] | > 500 nM
5 | Cc1c(-c2ccnn2-c2ccc(C#N)cc2)cn2nc(NCC(C)O)nc2c1-c1cccc(C(F)(F)F)c1 (stereo not drawn) [Example 49, 4-{5-[2-(2-Hydroxy-propylamino)-7-methyl-8-(3-trifluoromethyl-phenyl)-[1,2,4]triazolo[1,5-a]pyridin-6-yl]-pyrazol-1-yl}-benzonitrile] | < 20 nM
6 | Cc1c(-c2ccnn2-c2ccc(C#N)cc2)cn2c(=O)[nH]nc2c1-c1cccc(C(F)(F)F)c1 [Example 9, 4-{5-[7-Methyl-3-oxo-8-(3-trifluoromethyl-phenyl)-2,3-dihydro-[1,2,4]triazolo[4,3-a]pyridin-6-yl]-pyrazol-1-yl}-benzonitrile] | < 20 nM
7 | Cc1c(-c2ccnn2-c2ccc(C#N)cc2)cn2nc(NC(=O)NC3CCN(C)CC3)nc2c1-c1cccc(C(F)(F)F)c1 [Example 51, (1-Methyl-4-piperidyl)[6-[2-(4-cyano-phenyl)-2H-pyrazol-3-yl]-7-methyl-8-(3-trifluoromethyl-phenyl)-[1,2,4]triazolo[1,5-a]pyridin-2-yl]-urea] | < 20 nM
8 | CNCCCC(=O)Nc1nc2c(-c3cccc(C(F)(F)F)c3)c(C)c(-c3ccnn3-c3ccc(C#N)cc3)cn2n1 [Example 56, N-[6-[2-(4-Cyano-phenyl)-2H-pyrazol-3-yl]-7-methyl-8-(3-trifluoromethyl-phenyl)-[1,2,4]triazolo[1,5-a]pyridin-2-yl]-4-methylamino-butyramide] | < 20 nM
9 | CNC(=O)Cn1nc2c(-c3cccc(C(F)(F)F)c3)c(C)c(-c3ccnn3-c3ccc(C#N)cc3)cn2c1=O [Example 12, 2-[6-[2-(4-Cyano-phenyl)-2H-pyrazol-3-yl]-7-methyl-3-oxo-8-(3-trifluoromethyl-phenyl)-[1,2,4]triazolo[4,3-a]pyridin-2-yl]-N-methyl-acetamide] | 100 to 500 nM
10 | Cc1c(-c2ccnn2-c2ccc(C#N)cc2)cn2nc(NCCCN(C)C)nc2c1-c1cccc(C(F)(F)F)c1 [Example 28, 4-{5-[2-(3-Dimethylamino-propylamino)-7-methyl-8-(3-trifluoromethyl-phenyl)-[1,2,4]triazolo[1,5-a]pyridin-6-yl]-pyrazol-1-yl}-benzonitrile] | < 20 nM
11 | Cc1c(-c2ccnn2-c2ccc(C#N)cc2)cn2nc(NC(=O)CN3CC[N+](C)(C)CC3)nc2c1-c1cccc(C(F)(F)F)c1 [Example 19, 4-{[6-[2-(4-Cyano-phenyl)-2H-pyrazol-3-yl]-7-methyl-8-(3-trifluoromethyl-phenyl)-[1,2,4]triazolo[1,5-a]pyridin-2-ylcarbamoyl]-methyl}-1,1-dimethyl-piperazin-1-ium iodide] | < 20 nM
12 | Cc1c(-c2ccnn2-c2ccc(C#N)cc2)cn2nc(NCc3ccc(S(C)(=O)=O)cc3)nc2c1-c1cccc(C(F)(F)F)c1 [Example 23, 4-{5-[2-(4-Methanesulfonyl-benzylamino)-7-methyl-8-(3-trifluoromethyl-phenyl)-[1,2,4]triazolo[1,5-a]pyridin-6-yl]-pyrazol-1-yl}-benzonitrile] | < 20 nM
13 | CCNC(=O)Nc1nc2c(-c3cccc(C(F)(F)F)c3)c(C)c(-c3ccnn3-c3ccc(C#N)cc3)cn2n1 [Example 52, 1-[6-[2-(4-Cyano-phenyl)-2H-pyrazol-3-yl]-7-methyl-8-(3-trifluoromethyl-phenyl)-[1,2,4]triazolo[1,5-a]pyridin-2-yl]-3-ethyl-urea] | < 20 nM
14 | Cc1c(-c2ccnn2-c2ccc(C#N)cc2)cn2nc(NCC(=O)N(C)C)nc2c1-c1cccc(C(F)(F)F)c1 [Example 24, 2-[6-[2-(4-Cyano-phenyl)-2H-pyrazol-3-yl]-7-methyl-8-(3-trifluoromethyl-phenyl)-[1,2,4]triazolo[1,5-a]pyridin-2-ylamino]-N,N-dimethyl-acetamide] | < 20 nM
15 | Cc1c(-c2ccnn2-c2ccc(C#N)cc2)cn2c(=O)n(CCCS(C)(=O)=O)nc2c1-c1cccc(C(F)(F)F)c1 [Example 13, 4-{5-[2-(3-Methanesulfonyl-propyl)-7-methyl-3-oxo-8-(3-trifluoromethyl-phenyl)-2,3-dihydro-[1,2,4]triazolo[4,3-a]pyridin-6-yl]-pyrazol-1-yl}-benzonitrile] | 100 to 500 nM
16 | COc1nc2c(-c3cccc(C(F)(F)F)c3)c(C)c(-c3ccnn3-c3ccc(C#N)cc3)cn2n1 [Example 31, 4-{5-[2-Methoxy-7-methyl-8-(3-trifluoromethyl-phenyl)-[1,2,4]triazolo[1,5-a]pyridin-6-yl]-pyrazol-1-yl}-benzonitrile] | 100 to 500 nM
17 | Cc1c(-c2ccnn2-c2ccc(C#N)cc2)cn2nc(NCCCC[N+](C)(C)C)nc2c1-c1cccc(C(F)(F)F)c1 [Example 34, {4-[6-[2-(4-Cyano-phenyl)-2H-pyrazol-3-yl]-7-methyl-8-(3-trifluoromethyl-phenyl)-[1,2,4]triazolo[1,5-a]pyridin-2-ylamino]-butyl}-trimethyl-ammonium formate] | < 20 nM
18 | Cc1c(-c2ccnn2-c2ccc(C#N)cc2)cn2ccnc2c1-c1cccc(C(F)(F)F)c1 [Example 6, 4-{5-[7-Methyl-8-(3-trifluoromethyl-phenyl)-imidazo[1,2-a]pyridin-6-yl]-pyrazol-1-yl}-benzonitrile] | 20 to 100 nM
19 | Cc1c(-c2ccnn2-c2ccc(C#N)cc2)cn2nc(NCCCC(=O)N(C)CCN(C)C)nc2c1-c1cccc(C(F)(F)F)c1 [Example 60, 4-[6-[2-(4-Cyano-phenyl)-2H-pyrazol-3-yl]-7-methyl-8-(3-trifluoromethyl-phenyl)-[1,2,4]triazolo[1,5-a]pyridin-2-ylamino]-N-(2-dimethylamino-ethyl)-N-methyl-butyramide formate salt] | < 20 nM
20 | Cc1c(-c2ccnn2-c2ccc(C#N)cc2)cn2nc(Cc3ccc(S(C)(=O)=O)cc3)nc2c1-c1cccc(C(F)(F)F)c1 [Example 8, 4-{5-[2-(4-Methanesulfonyl-benzyl)-7-methyl-8-(3-trifluoromethyl-phenyl)-[1,2,4]triazolo[1,5-a]pyridin-6-yl]-pyrazol-1-yl}-benzonitrile] | 100 to 500 nM
21 | Cc1c(-c2ccnn2-c2ccc(C#N)cc2)cn2nc(NS(C)(=O)=O)nc2c1-c1cccc(C(F)(F)F)c1 [Example 27, N-[6-[2-(4-Cyano-phenyl)-2H-pyrazol-3-yl]-7-methyl-8-(3-trifluoromethyl-phenyl)-[1,2,4]triazolo[1,5-a]pyridin-2-yl]-methanesulfonamide] | 20 to 100 nM
22 | Cc1c(-c2ccnn2-c2ccc(C#N)cc2)cn2c(=O)n(Cc3ccc(S(C)(=O)=O)cc3)nc2c1-c1cccc(C(F)(F)F)c1 [Example 10, 4-{5-[2-(4-Methanesulfonyl-benzyl)-7-methyl-3-oxo-8-(3-trifluoromethyl-phenyl)-2,3-dihydro-[1,2,4]triazolo[4,3-a]pyridin-6-yl]-pyrazol-1-yl}-benzonitrile] | 100 to 500 nM
23 | Cc1c(-c2ccnn2-c2ccc(C#N)cc2)cn2nc(NCCCCN(C)C)nc2c1-c1cccc(C(F)(F)F)c1 [Example 30, 4-{5-[2-(4-Dimethylamino-butylamino)-7-methyl-8-(3-trifluoromethyl-phenyl)-[1,2,4]triazolo[1,5-a]pyridin-6-yl]-pyrazol-1-yl}-benzonitrile] | < 20 nM
24 | Cc1c(-c2ccnn2-c2ccc(C#N)cc2)cn2nc(NCCN(C)C)nc2c1-c1cccc(C(F)(F)F)c1 [Example 29, 4-{5-[2-(2-Dimethylamino-ethylamino)-7-methyl-8-(3-trifluoromethyl-phenyl)-[1,2,4]triazolo[1,5-a]pyridin-6-yl]-pyrazol-1-yl}-benzonitrile] | 20 to 100 nM
